Assay results as given in patent publication US20190308988A1, “OPIOID RECEPTOR ANTAGONIST PRODRUGS” (Nirsum Laboratories, Inc., priority 2017, published 2019).
≈ marks a conversion by molar mass, not a printed value.

Columns and labels:
[1] = Polymorph screening of solid state drug substances (Table 23); type: physicochemical; conditions: stirred 50 °C 72 hours; for Dry method and appearance: dried solid
[2] = Solubility determination in oil (Table 10); conditions: thermodynamic from solid; for solubility at 24 h: 25 °C, Obs. Temp. 25 °C; for solubility thermodynamic: water, Equilibrium solubility: Water
Protocol: A known amount of test substance (˜40 mg) was weighed into the vial, 100 μL of oil was added and heated to 60° C. and then system was slurried to reach equilibrium. […] Extra oil was added into the vial once compound precipitated out and then the system was re-equilibrated at 1000 rpm at room temperature (25° C.). Final concentration was determined by HPLC method as described below in Table 6a and 6b.

[3] = oil or lipid, Approximate Solubility in Excipient: Cottonseed oil, Heating Temp. 60 °C
[4] = oil or lipid, Approximate Solubility in Excipient: Sesame oil, Heating Temp. 60 °C
[5] = 40 °C, oil or lipid, Approximate Solubility in Excipient: Cottonseed oil, Heating Temp. 60 °C, Obs. Temp. 40 °C
[6] = 40 °C, oil or lipid, Approximate Solubility in Excipient: Sesame oil, Heating Temp. 60 °C, Obs. Temp. 40 °C
[7] = 40 °C, organic solvent or mixture, Approximate Solubility in Excipient: Ethanol, Heating Temp. 60 °C, Obs. Temp. 40 °C
[8] = 40 °C, Heating Temp. 60 °C, Obs. Temp. 40 °C
[9] = after slurry in EtOAc, temperatures N/A
[10] = 40 °C, oil or lipid, Approximate Solubility in Excipient: Cottonseed oil, Heating Temp. 40 °C, Obs. Temp. 40 °C
[11] = 40 °C, oil or lipid, Approximate Solubility in Excipient: Sesame oil, Heating Temp. 40 °C, Obs. Temp. 40 °C
[12] = 40 °C, organic solvent or mixture, Approximate Solubility in Excipient: Ethanol, Heating Temp. 40 °C, Obs. Temp. 40 °C
[13] = 40 °C, Heating Temp. 40 °C, Obs. Temp. 40 °C
[14] = after slurry in Heptane, temperatures N/A

SMILES	XRPD results (Dried) ([1]; Acetone)	Dry method and appearance ([1]; Acetone)	XRPD results (Dried) ([1]; EtOAc)	Dry method and appearance ([1]; EtOAc)	XRPD results (Dried) ([1]; Heptane)	Dry method and appearance ([1]; Heptane)	XRPD results (Dried) ([1]; Isopropanol)	Dry method and appearance ([1]; Isopropanol)	XRPD results (Dried) ([1]; MTBE)	Dry method and appearance ([1]; MTBE)	solubility at 24 h [2, 3] [mg/mL]	solubility at 24 h [2, 4] [mg/mL]	solubility [2, 5] [mg/mL]	solubility [2, 6] [mg/mL]	solubility [2, 7] [mg/mL]	solubility thermodynamic [2, 8] [µg/mL]	solubility [2, 10] [mg/mL]	solubility [2, 11] [mg/mL]	solubility [2, 12] [mg/mL]	solubility thermodynamic [2, 13] [µg/mL]	further results
CCCCCCCCCCCCCCCC(=O)Oc1ccc2c3c1O[C@H]1C(=O)CC[C@@]4(O)C(C2)N(CC2CC2)CC[C@]314 [Compound 55, (4aS,7aR,12bS)-3-(cyclopropylmethyl)-4a-hydroxy-7-oxo-2,3,4,4a,5,6,7,7a-octahydro-1H-4,12-methanobenzofuro[3,2-e]isoquinolin-9-yl palmitate]	Pattern B	Evaporation/white powder	Pattern B	Evaporation/white powder	Pattern B	Evaporation/white powder	Pattern B	Evaporation/white powder	Pattern B	Evaporation/white powder	< 50	< 50	> 400	> 395	> 401	6.6 (≈ 0.0114 mM)					solubility thermodynamic [2, 9]: < 0.5 µg/mL
C=C1CC[C@@]2(O)C3Cc4ccc(OC(=O)OCCCCCCCCCCCCCCCC)c5c4[C@@]2(CCN3CC2CC2)[C@H]1O5 [Compound 19, (4aS,7aS,12bS)-3-(cyclopropylmethyl)-4a-hydroxy-7-methylene-2,3,4,4a,5,6,7,7a-octahydro-1H-4,12-methanobenzofuro[3,2-e]isoquinolin-9-yl hexadecyl carbonate]	Pattern A	Evaporation/white powder	Pattern A	Evaporation/white powder	Pattern A	Evaporation/white powder	Pattern A	Evaporation/white powder	Pattern A	Evaporation/white powder							67 to 80 (≈ 110 to 132 mM)	103 to 137 (≈ 169 to 225 mM)	27 to 42 (≈ 44.4 to 69.1 mM)	46.8 (≈ 0.077 mM)	
C=C1CC[C@@]2(O)C3Cc4ccc(OC(=O)CCCCCCCCCCCCCCCCCCC)c5c4[C@@]2(CCN3CC2CC2)[C@H]1O5 [Compound 16, (4aS,7aS,12bS)-3-(cyclopropylmethyl)-4a-hydroxy-7-methylene-2,3,4,4a,5,6,7,7a-octahydro-1H-4,12-methanobenzofuro[3,2-e]isoquinolin-9-yl icosanoate]	Pattern A	Evaporation/white powder	Pattern A	Evaporation/white powder	Pattern A	Centrifugation/white powder	Pattern A	Centrifugation/white powder	Pattern A	Evaporation/white powder			201 to 403 (≈ 317 to 636 mM)	202 to 404 (≈ 319 to 637 mM)		11 (≈ 0.0174 mM)	57 to 67 (≈ 89.9 to 106 mM)	68 to 81 (≈ 107 to 128 mM)	< 25	206 (≈ 0.325 mM)	
CCCCCCCCCCCCCCCCOC(=O)Oc1ccc2c3c1O[C@H]1C(=O)CC[C@@]4(O)C(C2)N(CC2CC2)CC[C@]314 [Compound 21, (4aS,7aR,12bS)-3-(cyclopropylmethyl)-4a-hydroxy-7-oxo-2,3,4,4a,5,6,7,7a-octahydro-1H-4,12-methanobenzofuro[3,2-e]isoquinolin-9-yl hexadecyl carbonate]	Pattern A	Evaporation/white powder	Pattern A	Evaporation/white powder	Pattern A	Evaporation/white powder	Pattern A	Evaporation/white powder	Pattern A	Evaporation/white powder			101 to 135 (≈ 166 to 221 mM)	101 to 134 (≈ 166 to 221 mM)	50 to 100 (≈ 82 to 164 mM)	0.6 (≈ 0.000984 mM)					
CCCCCCCCCCCCOC(=O)Oc1ccc2c3c1O[C@H]1C(=O)CC[C@@]4(O)C(C2)N(CC2CC2)CC[C@]314 [Compound 11, (4aS,7aR,12bS)-3-(cyclopropylmethyl)-4a-hydroxy-7-oxo-2,3,4,4a,5,6,7,7a-octahydro-1H-4,12-methanobenzofuro[3,2-e]isoquinolin-9-yl dodecyl carbonate]	Pattern A	Evaporation/white powder	Pattern A	Evaporation/white powder	Pattern B	Evaporation/white powder	Pattern A	Evaporation/white powder	Pattern A	Evaporation/white powder	< 51	< 50					> 407	> 407	> 218	0.5 (≈ 0.000903 mM)	solubility thermodynamic [2, 14]: 2.6 µg/mL (≈ 0.0047 mM)
C=C1CC[C@@]2(O)C3Cc4ccc(OC(=O)CCCCCCCCCCCCCCCCCCCCC)c5c4[C@@]2(CCN3CC2CC2)[C@H]1O5 [Compound 14, (4aS,7aS,12bS)-3-(cyclopropylmethyl)-4a-hydroxy-7-methylene-2,3,4,4a,5,6,7,7a-octahydro-1H-4,12-methanobenzofuro[3,2-e]isoquinolin-9-yl docosanoate]	Pattern A	Evaporation/white powder	Pattern A	Evaporation/white powder	Pattern B	Centrifugation/white powder	Pattern A	Evaporation/white powder	Pattern A	Evaporation/white powder			< 25	< 25			< 50	< 51	69 to 83 (≈ 104 to 125 mM)	10 (≈ 0.0151 mM)	solubility thermodynamic [2, 9]: < 0.5 µg/mL; solubility thermodynamic [2, 14]: < 0.5 µg/mL
